Data on five molecules can be found in patent US6808924B1, “Mouse mammary tumor lines expressing estrogen and progesterone receptors” (priority 2000, dated 2004).

In test [1] the test system is MC4-L1 cell line. Put plainly: In vitro hormone response, 3H-thymidine uptake, MC4-L1. The format is cell-based, mouse. The procedure:
(§1) 3H-Thymidine uptake: In a 96 well microplate, 0.1 ml/well of a cell suspension were seeded in EM at a concentration of 10^5 cell/ml. After attachment (24 hs), the cells were incubated for 72 hs with the experimental solutions to be tested. Half the media was changed every 24 hs. The cells were incubated with 0.4 μCi of ^3H-thymidine (specific activity: 20 Ci/mmol) for 24 hs, trypsinized and harvested in a cell harvester. Filters were counted in a liquid scintillation counter. Assays were performed in octuplicates and mean and standard deviation were calculated for each solution tested. The difference between controls and experimental groups were analyzed by ANOVA followed by Dunnet's t test between groups.

Test [2] has as its system MC7-L1 tumors. Nature of the test: In vivo hormone response, MC7-L1 tumors in BALB/c female mice. Details: species or system mouse. As to conditions: for effect on tumor size (tumor regression): MC7-L1 tumors, ZK 10 mg/Kg or RU 6.5 mg/Kg daily sc, E2 5 mg silastic pellet sc. The procedure:
(§2) Cells were trypsinized and resuspended in 10 fold excess of culture medium and 10% FCS. After centrifugation cells were resuspended in serum-free medium and […] were injected sc in a final volume of 0.1 ml using a 21 gauge needle in the right inguinal flank of BALB/c mice which have been inoculated contralaterally with 40 mg MPA depot (Gador Laboratories, Buenos Aires). The mice were examined every three days for the development of palpable tumors. At the end of the experiment the animals were killed and the tumors excised. Complete autopsies were performed to detect the presence of metastases. Animal care was in agreement with institutional guidelines. Cells from different lines were inoculated into BALB/c female mice treated or not with MPA as described previously. If tumors grew similarly in treated and untreated animals, the tumors growing in untreated mice were used for the next passage. Tumors were transplanted by trocar sc in the right inguinal flank of 2 month old, BALB/c female mice. Hormone treatments were initiated when the tumors reached around 50 mm2. RU (6.5 mg/Kg body weight) and ZK (10 mg/Kg body weight) were inoculated as daily sc injections. E2 was administered as 5 mg silastic pellets implanted sc. Tumor growth was measured every 2-3 days.

Test [3] has as its system MC4-L3 tumors. Nature of the test: In vivo hormone response, MC4-L3 tumors in BALB/c female mice. Also on record: species or system mouse. As to conditions: for effect on tumor size (tumor regression): MC4-L3 tumors about 50 mm2, ZK 10 mg/Kg or RU 6.5 mg/Kg daily sc, E2 5 mg silastic pellet sc. The procedure: as §2
Test [4] has as its system MC4-L1 tumors. Nature of the test: In vivo hormone response, MC4-L1 tumors in BALB/c female mice. Details: species or system mouse. As to conditions: for effect on tumor size (tumor regression): MC4-L1 tumors about 50 mm2, no MPA, ZK 10 mg/Kg or RU 6.5 mg/Kg daily sc, E2 5 mg silastic pellet sc. As to the method: as §2
For test [5], the system named is MC4-L2 cell line. Put plainly: In vitro hormone response, 3H-thymidine uptake, MC4-L2. Format: cell-based, mouse. As to the method:
as §1

In test [6] the test system is MC7-L1 cell line. Put plainly: In vitro hormone response, 3H-thymidine uptake, MC7-L1. The format is cell-based, mouse. Details: In vitro proliferative response: key to the marks not given beside the values. As to the method: as §1
In test [7] the test system is MC4-L3 cell line. Put plainly: In vitro hormone response, 3H-thymidine uptake, MC4-L3. Format: cell-based, mouse. The procedure: as §1
Test [8] deals with MC4-L2 tumors. Nature of the test: In vivo hormone response, MC4-L2 tumors in BALB/c female mice. Details: species or system mouse. As to the method:
as §2

Test [9] deals with C4-HD primary and secondary cultures. The following applies: primary and secondary cultures of C4-HD (Dran G. et al. 1995); cited from earlier work.
Where [10] appears, read: MC4-L1, early passages (before passage number 16).

With `CN(C)c1ccc([C@H]2C[C@]3(C)[C@@H](CC[C@]3(O)CCCO)[C@@H]3CCC4=CC(=O)CCC4=C32)cc1` [ZK, onapristone], the “effect on cell proliferation (3H-thymidine uptake)” value is “stimulated cell proliferation” in test [1] (MC4-L1, μM concentrations) and “in some experiments showed an inhibitory effect” in [5] (MC4-L2, about 0.1 to about 1 uM). Besides, the results for the “effect on tumor size (tumor regression)” value in test [2], in [3] and in [4] were “not inhibited”, “Complete regression” and “showed tumor regression”, respectively. For the same molecule, the “effect on thymidine uptake” value in test [6] (MC7-L1) is reported as “did not modify thymidine uptake”.

Turning to `C[C@]12CC[C@@H]3c4ccc(O)cc4CC[C@H]3[C@@H]1CC[C@@H]2O` [E2, estradiol], the “In vitro proliferative response” value in test [1] (MC4-L1, Table 2 grade) is “±”; in test [7] (MC4-L3, Table 2 grade), “−”; in [5] (MC4-L2, Table 2 grade) it was “+”; in [6] (MC7-L1, Table 2 grade), “++”. In addition, in test [2], the “effect on tumor size (tumor regression)” value is reported as “not inhibited”. Besides, in test [6] (MC7-L1), the “concentration at which the higher values of proliferation were obtained” value was “about 1 nM”.

Turning to TGFβ1: TGFβ1, the “effect on cell proliferation (3H-thymidine uptake)” value is on record as “significant inhibition of cell growth” in [1] (MC4-L1, later passages) and “inhibited” in test [7] (MC4-L3). In addition, the “effect on thymidine uptake” value in test [6] (MC7-L1) is reported as “had no effects”.

For the molecule `CC#C[C@]1(O)CC[C@H]2[C@@H]3CCC4=CC(=O)CCC4=C3[C@@H](c3ccc(N(C)C)cc3)C[C@@]21C` [RU, mifepristone], the “effect on cell proliferation (3H-thymidine uptake)” value is reported as “agonist effect” in test [1] (setting [10]); “did not induce any change” in test [5] (MC4-L2); “stimulatory effect” in [6] (MC7-L1, about 0.1 to about 1 μM). In addition, the “effect on tumor size (tumor regression)” value in test [8] (MC4-L2 tumors about 50 mm2, RU 6.5 mg/Kg daily sc) is given as “complete regression”; in [2], “not inhibited”; in test [3] it was “Complete regression”; in [4] it was “Only animals treated with ZK showed tumor regression”.

With `CC(=O)O[C@]1(C(C)=O)CC[C@H]2[C@@H]3C[C@H](C)C4=CC(=O)CC[C@]4(C)[C@H]3CC[C@@]21C` [MPA, medroxyprogesterone acetate], the “effect on cell proliferation (3H-thymidine uptake)” value in [1] (setting [10]) was “stimulatory effect”; in test [1] (MC4-L1, later passages), “only evident (p<0.05) with uM concentrations”; in test [5] (MC4-L2, 0.1 nM to about 10 nM), “significant stimulatory effect”. The “MPA dependence of tumor growth” value is “PI pattern of growth” in test [8] (MC4-L2, MPA-treated vs non-treated mice); “PI pattern of growth” in [2] (MC7-L1, MPA-treated vs non-treated mice); “PD pattern” in test [3] (MC4-L3, MPA-treated vs non-treated mice); “same pattern of growth that was observed in the parental tumor line” in test [4] (MC4-L1 inoculated sc, mice treated or not with 40 mg MPA depot sc); “MPA-dependent” in test [4] (MC4-L1 subculture 70, 3rd passage); “growth was favored” in [4] (MC4-L1 subculture 70, next passage). Further, the “effect on cell proliferation” value in [9] is on record as “stimulates directly cell proliferation”. The “effect on cell growth (3H-thymidine uptake)” value in test [6] (MC7-L1, about 1 nM to about 1 uM) is recorded as “significantly stimulates cell growth”.
